Where two headings read alike, the source gives them in different places.
Test: Determination of log P values by HPLC on a reverse phase column (C18), EEC-Directive 79/831 Annex V.A8 (Methods A, B, C)
Type: physicochemical
Settings: reverse phase C18 HPLC column
Method: (§1) Note on the determination of the log P values and mass detection: The stated log P values were determined in accordance with EEC-Directive 79/831 Annex V.A8 by HPLC (High Performance Liquid Chromatography) on a reverse phase column (C18). Agilent 1100 LC system; 50*4.6 Zorbax Eclipse Plus C18 1.8 micron; eluent A: acetonitrile (0.1% formic acid); eluent B: water (0.09% formic acid); linear gradient from 10% acetonitrile to 95% acetonitrile in 4.25 mins, then 95% acetonitrile for a further 1.25 mins; oven temperature 55° C.; flow rate: 2.0 mL/min. The mass detection was effected with an Agilend MSD system.
as §1, with “HP1100;” for “Agilent 1100 LC system;”, “(0.08%” for “(0.09%”, “5%” for “10%”, “1.70 min,” for “4.25 mins,”, “1.00 min;” for “1.25 mins;”, “the Micronass ZQ2000 mass detector from Waters.” for “an Agilend MSD system.”
Note on the determination of the log P values and mass detection: The stated log P values were determined in accordance with EEC-Directive 79/831 Annex V.A8 by UPLC (Ultra Performance Liquid Chromatography) on a reverse phase column (C18). HP1100; 50*2.1 Zorbax Eclipse Plus C18 1.8 micron; eluent A: acetonitrile (0.09% formic acid); eluent B: water (0.1% formic acid); linear gradient from 10% A to 95% A in 3.25 min; oven temperature 40° C.; flow rate: 0.8 mL/min. The mass detection was effected with the LCT Premier or SQD mass detector from Waters.

[1] = pH 2.3, intermediates of formula [II], HPLC, reverse phase C18, read-out: LogP (pH 2.3)
[2] = pH 2.7, values in the synthesis examples, HPLC, reverse phase C18, read-out: log P (pH 2.7)
[3] = pH 2.3, intermediates of formula [IV] and [XXXVII], HPLC, reverse phase C18, read-out: LogP (pH 2.3)
[4] = pH 2.3, intermediates of formula [VI], HPLC, reverse phase C18, read-out: LogP (pH 2.3)

Compound	chromatographic logP [2]	chromatographic logP [3]	other results
Nc1cc(-c2c(-c3ccccc3)nn3c2OCCC3)ccn1 [[II-1], 4-(2-phenyl-6,7-dihydro-5H-pyrazolo[5,1-b][1,3]oxazin-3-yl)pyridin-2-amine]	0.87		chromatographic logP [1]: 0.87
Nc1cc(-c2c(-c3ccc(F)cc3)nn3c2OCCC3)ccn1 [[II-2], 4-[2-(4-fluorophenyl)-6,7-dihydro-5H-pyrazolo[5,1-b][1,3]oxazin-3-yl]pyridin-2-amine]	0.95		chromatographic logP [1]: 0.95
Nc1cc(-c2c(-c3ccc(F)cc3F)nn3c2OCCC3)ccn1 [[II-3], 4-[2-(2,4-difluorophenyl)-6,7-dihydro-5H-pyrazolo[5,1-b][1,3]oxazin-3-yl]pyridin-2-amine]	1.01		chromatographic logP [1]: 1.01
C[Si]1(C)COc2c(-c3ccnc(N)c3)c(-c3ccc(F)cc3)nn2C1 [[II-4], 4-[7-(4-fluorophenyl)-3,3-dimethyl-3,4-dihydro-2H-pyrazolo[5,1-b][1,3,5]oxazasilin-8-yl]pyridin-2-amine]			chromatographic logP [1]: 1.66
Nc1cc(-c2c(-c3ccccc3)nn3cccnc23)ccn1 [[II-a-1], 4-(2-Phenylpyrazolo[1,5-a]pyrimidin-3-yl)pyridin-2-amine]	0.98		chromatographic logP [1]: 0.98
Nc1cc(-c2c(-c3ccccc3)nn3c2NCCC3)ccn1 [[II-b-1], 4-(2-Phenyl-4,5,6,7-tetrahydropyrazolo[1,5-a]pyrimidin-3-yl)pyridin-2-amine]	1.05		chromatographic logP [1]: 1.05
CC1CCOc2c(B3OC(C)(C)C(C)(C)O3)c(-c3ccc(F)cc3)nn21 (stereo not drawn) [[III-1], 2-(4-fluorophenyl)-7-methyl-3-(4,4,5,5-tetramethyl-1,3,2-dioxaborolan-2-yl)-6,7-dihydro-5H-pyrazolo[5,1-b][1,3]oxazine]	3.5		
Brc1c(-c2ccccc2)nn2c1OCCC2 [[IV-1], 3-bromo-2-phenyl-6,7-dihydro-5H-pyrazolo[5,1-b][1,3]oxazine]	2.66	2.66	
Fc1ccc(-c2nn3c(c2Br)OCCC3)cc1 [[IV-2], 3-bromo-2-(4-fluorophenyl)-6,7-dihydro-5H-pyrazolo[5,1-b][1,3]oxazine]	2.86	2.86	
Fc1ccc(-c2nn3c(c2Br)OCCC3)c(F)c1 [[IV-3], 3-bromo-2-(2,4-difluorophenyl)-6,7-dihydro-5H-pyrazolo[5,1-b][1,3]oxazine]	2.7	2.7	
Fc1ccc(-c2nn3c(c2Br)OCC3)cc1 [[IV-4], 7-bromo-6-(4-fluorophenyl)-2,3-dihydropyrazolo[5,1-b][1,3]oxazole]	2.69	2.69	
C[Si]1(C)COc2c(Br)c(-c3ccc(F)cc3)nn2C1 [[IV-5], 8-bromo-7-(4-fluorophenyl)-3,3-dimethyl-3,4-dihydro-2H-pyrazolo[5,1-b][1,3,5]oxazasiline]	3.83	3.83	
CC1CCOc2c(Br)c(-c3ccc(F)cc3)nn21 (stereo not drawn) [[IV-6], 3-bromo-2-(4-fluorophenyl)-7-methyl-6,7-dihydro-5H-pyrazolo[5,1-b][1,3]oxazine]	3.36	3.36	
Fc1ccc(-c2nn3c(c2Br)OCC(F)(F)C3)cc1 [[IV-7], 3-bromo-6,6-difluoro-2-(4-fluorophenyl)-6,7-dihydro-5H-pyrazolo[5,1-b][1,3]oxazine]	3.3	3.3	
CC1Oc2c(Br)c(-c3ccc(F)cc3)nn2C1C (stereo not drawn) [[IV-8], 7-bromo-6-(4-fluorophenyl)-2,3-dimethyl-2,3-dihydropyrazolo[5,1-b][1,3]oxazole]		3.39	chromatographic logP (pH 2.7, major isomer of the diastereoisomer mixture, read-out: Log P (pH 2.7), major isomer): 3.39; chromatographic logP (pH 2.7, minor isomer of the diastereoisomer mixture, read-out: Log P (pH 2.7), minor isomer): 3.46
CC1(C)COc2c(Br)c(-c3ccc(F)cc3)nn2C1 [[IV-10], 3-bromo-2-(4-fluorophenyl)-6,6-dimethyl-6,7-dihydro-5H-pyrazolo[5,1-b][1,3]oxazine]	3.63	3.63	
CC1(C#N)COc2c(Br)c(-c3ccc(F)cc3)nn2C1 (stereo not drawn) [[IV-11], 3-bromo-2-(4-fluorophenyl)-6-methyl-6,7-dihydro-5H-pyrazolo[5,1-b][1,3]oxazine-6-carbonitrile]	2.94	2.94	
C[Si]1(C)COc2c(Br)c(-c3cccs3)nn2C1 [[IV-12], 8-bromo-3,3-dimethyl-7-(2-thienyl)-3,4-dihydro-2H-pyrazolo[5,1-b][1,3,5]oxazasiline]	3.58	3.58	

Compound	chromatographic logP [2]	chromatographic logP [3]	other results
Cc1coc2c(Br)c(-c3ccc(F)cc3)nn12 [[IV-a-1], 7-bromo-6-(4-fluorophenyl)-3-methylpyrazolo[5,1-b][1,3]oxazole]	3.56	3.56	
CCc1coc2c(Br)c(-c3ccc(F)cc3)nn12 [[IV-a-2], 7-bromo-3-ethyl-6-(4-fluorophenyl)pyrazolo[5,1-b][1,3]oxazole]	4.18	4.18	
Fc1ccc(-c2nn3ccoc3c2Br)cc1 [[IV-a-3], 7-bromo-6-(4-fluorophenyl)pyrazolo[5,1-b][1,3]oxazole]	3.07	3.07	
Brc1c(-c2ccccc2)nn2ccoc12 [[IV-a-4], 7-bromo-6-phenylpyrazolo[5,1-b][1,3]oxazole]	2.91	2.91	
c1ccc(-c2cc3n(n2)CCCO3)cc1 [[VI-1], 2-phenyl-6,7-dihydro-5H-pyrazolo[5,1-b][1,3]oxazine]	2.04		chromatographic logP [4]: 2.04
Fc1ccc(-c2cc3n(n2)CCCO3)cc1 [[VI-2], 2-(4-fluorophenyl)-6,7-dihydro-5H-pyrazolo[5,1-b][1,3]oxazine]	2.18		chromatographic logP [4]: 2.18
Fc1ccc(-c2cc3n(n2)CCCO3)c(F)c1 [[VI-3], 2-(2,4-difluorophenyl)-6,7-dihydro-5H-pyrazolo[5,1-b][1,3]oxazine]	2.38		chromatographic logP [4]: 2.38
CC1CCOc2cc(-c3ccc(F)cc3)nn21 (stereo not drawn) [[VI-4], 2-(4-fluorophenyl)-7-methyl-6,7-dihydro-5H-pyrazolo[5,1-b][1,3]oxazine]	2.65		chromatographic logP [4]: 2.65
C[Si]1(C)COc2cc(-c3ccc(F)cc3)nn2C1 [[VI-5], 7-(4-fluorophenyl)-3,3-dimethyl-3,4-dihydro-2H-pyrazolo[5,1-b][1,3,5]oxazasiline]	3.11		chromatographic logP [4]: 3.11
Fc1ccc(-c2cc3n(n2)CCS3)cc1 [[VI-6], 6-(4-fluorophenyl)-2,3-dihydropyrazolo[5,1-b][1,3]thiazole]	2.53		chromatographic logP [4]: 2.53
CC1(C)COc2cc(-c3ccc(F)cc3)nn2C1 [[VI-10], 2-(4-fluorophenyl)-6,6-dimethyl-6,7-dihydro-5H-pyrazolo[5,1-b][1,3]oxazine]	2.96		chromatographic logP [4]: 2.96
CC1(C#N)COc2cc(-c3ccc(F)cc3)nn2C1 (stereo not drawn) [[VI-11], 2-(4-fluorophenyl)-6-methyl-6,7-dihydro-5H-pyrazolo[5,1-b][1,3]oxazine-6-carbonitrile]	2.39		chromatographic logP [4]: 2.39
O=c1cc(-c2ccc(F)cc2)[nH][nH]1 [[VII-2], 3-(4-fluorophenyl)-1H-pyrazol-5-ol]	1.11		
Oc1cc(-c2ccc(F)cc2F)n[nH]1 [[VII-3], 3-(2,4-difluorophenyl)-1H-pyrazol-5-ol]	1.25		
Brc1c(-c2ccccc2)nn2cccnc12 [[XXXVII-1], 3-Bromo-2-phenylpyrazolo[1,5-a]pyrimidine]	2.63	2.63	
Fc1ccc(-c2nn3cccnc3c2Br)cc1 [[XXXVII-2], 3-Bromo-2-(4-fluorophenyl)pyrazolo[1,5-a]pyrimidine]	2.8	2.8	
Fc1ccc(-c2cc3ncccn3n2)cc1 [[XXXVIII-1], 2-(4-Fluorophenyl)pyrazolo[1,5-a]pyrimidine]	2.17		
